Experiment [1] deals with MYC. Description: mRNA-seq of 293T cells after 24 hr treatment. It counts as cell-based, human. The source says:
FIG. 6. SEC disruption targets MYC and MYC target genes. (A-B) Venn diagram of deregulated genes in 293T cells by KL-1 and KL-2. […] (C) Heat map showing the expression changes in response to SEC inhibitors, with differentially expressed canonical MYC targets, RNA splicing factors, and core SNRP assembly genes highlighted. […] Each cluster is represented by different colors and a circle node denotes each enriched term. (E) MA plots of RNA splicing and Hallmark MYC target genes in KL-2 treated, AFF1 and AFF4 co-depletion, and ELL2-depleted cells. […] The MYC genes, the PRMT5 gene, and genes encoding SEC components are denoted as red squares. (F) Western analysis of MYC protein levels in the MYC lowly expressed small cell lung cancer cell line […] and MYC-amplified small cell lung cancer cell line H2171. […] The SEC and MYC peaks were determined by MACS with a p-value cutoff at 1E-5. […] Both cell lines were treated with increasing concentrations of KL-1 and KL-2 for 3 days and the cell proliferation was measured with CellTiter-Glo luminescent cell viability assay (Promega) (n=3-6).
RNA-seq Analysis. […] Exonic reads were assigned to specific genes from Ensembl release 75 using Bioconductor package GenomicRanges countOverlaps. […] The total number of uniquely mapped reads was provided to edgeR for the calcNormFactors normalization rather than the default column sums. […]

For experiment [2], the system named is heat shock responsive genes in Drosophila S2 cells. Description: Heat shock induction in Drosophila S2 cells. It counts as cell-based. As to conditions: 20 μM. As for the experimental part:
FIG. 5. SEC inhibitors block transcription elongation in SEC-dependent rapid response models. (A-B) Genome browser tracks of Pol II ChIP-seq at the FOS, HSPD1 and HSPE1 genes after 1 hr heat shock of HCT-116 cells treated with vehicle (DMSO) or the indicated SEC inhibitors. HCT-116 cells were pretreated with inhibitors for 5 hr at 37° C. before exchanging medium with conditioned 42° C. medium. Dark and light colors indicate the 37 and 42° C. conditions, respectively. (C) Genome-wide identification of heat shock-induced genes with fold change of reads per million in gene bodies and pausing index. Red dots are the 136 heat shock-induced genes according to Pol II signals (fold change of reads per million in gene bodies >1.5 and pausing index decreased >1.5-fold in the DMSO-treated condition). […] Box plot analysis depicts the log2 fold changes of reads per million in gene bodies (E) (y axis) after heat shock with pretreatment of vehicle or SEC inhibitors. […] S2 cells were heat shocked at 37° C. with and without 20 μM SEC inhibitors for 6 hr (left panel). The statistical analysis was performed with the Wilcoxon test.
Heat Shock Induction. Heat shock of mammalian cells was performed using ˜70-80% confluent HCT-116 cells by adding pre-heated (42° C.) conditioned media collected from identically growing cells (Mahat et al., 2016b). The heat shock cells were incubated at 42° C. for 1 hour. […]

`COc1cccc(C(=O)CC(=O)C(=O)Nc2cc(Cl)ccc2C)c1` [KL-1, N-(5-chloro-2-methylphenyl)-4-oxo-4-(3-methoxyphenyl)-2-oxobutanamide]: in experiment [1], the MYC expression result is “led to decreased MYC expression”. In addition, the “heat shock induction of the 215 heat shock responsive genes” value in experiment [2] is “attenuated heat shock induction”.

For the origin of these results see US11453640B2, “Small molecules for disrupting the super elongation complex and inhibiting transcription elongation for cancer therapy” (NORTHWESTERN UNIVERSITY, priority 2018, dated 2022).
